Laboratory results published in patent US11414395B2, “Heterocyclic compounds as modulators of mGluR7” (PRAGMA Therapeutics, priority 2017, dated 2022).

Target: human mGluR7 (Homo sapiens (Human), UniProt Q14831)
Test: Inositol monophosphate production assay (IP1 assay), inhibition of L-AP4 response
Type: cell-based
Settings: mean IC50 from at least two independent experiments; HEK293 cells transiently transfected with mGluR7, Gqtop and EAAC1; IP1 production vs EC80 L-AP4
Source text: Inositol Monophosphate Production Assay (IP1 Assay):
HEK293 cells were transiently transfected with mGluR7 by electroporation and seeded in a poly-ornithine coated 96-well plate at the density of 150 000 cells/well. To allow the monitoring of receptor activity through measurements of inositol monophosphate (IP1) production, mGluR7 was transfected with a chimeric Gq/Gi protein (Gqtop). and was also co-transfected with EAAC1, a glutamate transporter, to avoid influence of extracellular glutamate. Cells were cultured in Dulbecco's Modified Eagle Medium (DMEM, Invitrogen, Cergy Pontoise, France), supplemented with 10% of Fetal Bovine Serum (FBS). Medium was changed by Glutamax™ (Invitrogen, Cergy Pontoise, France) to reduce extracellular glutamate concentration 3 hours before stimulation
IP1 production was determined using the IP-One HTRF kit (CisBio Bioassays), a competitive immunoassay using cryptate-labeled anti-IP1 antibody and d2-labeled IP, according to the manufacturer's recommendations. All points were realized in triplicate.
Data were analyzed with Prism 6 software (GraphPadSoftware, San Diego, Calif.). Typically, in each experiment, a four-parameter concentration-response curve equation was used to fit data and potency (IC50) is estimated as logarithms (log IC50). Data were calculated as % of the control mGluR7 agonist L-AP4 response, defined as the response that is generated upon addition of an EC80-equivalent concentration of L-AP4.
The Table 2 below represents the mean IC50 obtained from at least two independent experiments.

human mGluR7, sequence (Q14831 35-915): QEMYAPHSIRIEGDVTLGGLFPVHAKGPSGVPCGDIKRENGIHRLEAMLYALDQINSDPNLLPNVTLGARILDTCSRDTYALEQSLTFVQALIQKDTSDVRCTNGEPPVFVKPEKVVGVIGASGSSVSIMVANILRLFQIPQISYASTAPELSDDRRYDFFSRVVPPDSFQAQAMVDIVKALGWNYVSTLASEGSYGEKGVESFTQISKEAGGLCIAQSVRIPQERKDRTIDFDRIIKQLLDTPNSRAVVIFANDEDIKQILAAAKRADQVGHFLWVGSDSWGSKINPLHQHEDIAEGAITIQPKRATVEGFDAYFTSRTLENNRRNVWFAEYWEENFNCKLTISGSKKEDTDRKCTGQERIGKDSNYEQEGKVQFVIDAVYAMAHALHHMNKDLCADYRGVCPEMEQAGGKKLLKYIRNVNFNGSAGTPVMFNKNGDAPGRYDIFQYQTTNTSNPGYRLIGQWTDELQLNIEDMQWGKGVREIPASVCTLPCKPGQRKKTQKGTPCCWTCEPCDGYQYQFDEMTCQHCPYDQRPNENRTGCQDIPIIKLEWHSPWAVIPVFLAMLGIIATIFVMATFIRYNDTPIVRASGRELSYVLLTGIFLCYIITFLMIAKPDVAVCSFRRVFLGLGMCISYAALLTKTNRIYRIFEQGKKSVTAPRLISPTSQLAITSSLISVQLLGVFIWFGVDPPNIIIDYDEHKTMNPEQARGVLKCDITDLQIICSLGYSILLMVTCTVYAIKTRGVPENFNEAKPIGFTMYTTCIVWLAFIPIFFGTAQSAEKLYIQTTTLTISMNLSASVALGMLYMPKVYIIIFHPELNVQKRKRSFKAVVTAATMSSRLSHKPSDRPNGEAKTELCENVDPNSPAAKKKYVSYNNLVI

Row | Compound | IC50
1 | Cc1ccc(C2CCc3c(cnn(-c4ncccc4C#N)c3=O)C2)c(C)c1 (centres unmarked) [Example 24, 2-(6-(2,4-dimethylphenyl)-1-oxo-5,6,7,8-tetrahydrophthalazin-2(1H)-yl)nicotinonitrile] | < 500 nM
2 | COc1ccc(C)c(C2CCc3c(cnn(-c4ncc(Cl)cn4)c3=O)C2)c1 (centres unmarked) [Example 49, 2-(5-chloropyrimidin-2-yl)-6-(5-methoxy-2-methylphenyl)-5,6,7,8-tetrahydrophthalazin-1(2H)-one] | < 500 nM
3 | COc1ccnc(-n2ncc3c(c2=O)CCC(c2cccc(OC)c2C)C3)n1 (centres unmarked) [Example 42, 6-(3-methoxy-2-methylphenyl)-2-(4-methoxypyrimidin-2-yl)-5,6,7,8-tetrahydrophthalazin-1(2H)-one] | < 500 nM
4 | COc1cnc(-n2ncc3c(c2=O)CCC(c2ccc(C)cc2C)C3)nc1 (centres unmarked) [Example 53, 6-(2,4-dimethylphenyl)-2-(5-methoxypyrimidin-2-yl)-5,6,7,8-tetrahydrophthalazin-1(2H)-one] | < 500 nM
5 | Cc1ccc(C2CCc3c(cnn(-c4ncccc4C)c3=O)C2)c(C)c1 (centres unmarked) [Example 20, 6-(2,4-dimethylphenyl)-2-(3-methylpyridin-2-yl)-5,6,7,8-tetrahydrophthalazin-1(2H)-one] | < 500 nM
6 | COc1cccc(C2CCc3c(cnn(-c4ncc(O)cn4)c3=O)C2)c1C (centres unmarked) [Example 45, 2-(5-hydroxypyrimidin-2-yl)-6-(3-methoxy-2-methylphenyl)-5,6,7,8-tetrahydrophthalazin-1(2H)-one] | < 500 nM
7 | Cc1ccc(C2CCc3c(cnn(-c4ccc(F)cn4)c3=O)C2)c(C)c1 (centres unmarked) [Example 10, 6-(2,4-dimethylphenyl)-2-(5-fluoropyridin-2-yl)-5,6,7,8-tetrahydrophthalazin-1(2H)-one] | < 500 nM
8 | COc1cccc(C2CCc3c(cnn(-c4ccc(O)cn4)c3=O)C2)c1C (centres unmarked) [Example 38, 2-(5-hydroxypyridin-2-yl)-6-(3-methoxy-2-methylphenyl)-5,6,7,8-tetrahydrophthalazin-1(2H)-one] | < 500 nM
9 | Cc1ccc(C2CCc3c(cnn(-c4cc(O)ccn4)c3=O)C2)c(C)c1 (centres unmarked) [Example 26, 6-(2,4-dimethylphenyl)-2-(4-hydroxypyridin-2-yl)-5,6,7,8-tetrahydrophthalazin-1(2H)-one] | < 500 nM
10 | Cc1ccc(C2CCc3c(cnn(-c4cc(C#N)ccn4)c3=O)C2)c(C)c1 (centres unmarked) [Example 23, 2-(6-(2,4-dimethylphenyl)-1-oxo-5,6,7,8-tetrahydrophthalazin-2(1H)-yl)isonicotinonitrile] | < 500 nM
11 | COc1ccnc(-n2ncc3c(c2=O)CCC(c2ccc(C)cc2C)C3)n1 (centres unmarked) [Example 35, 6-(2,4-dimethylphenyl)-2-(4-methoxypyrimidin-2-yl)-5,6,7,8-tetrahydrophthalazin-1(2H)-one] | < 500 nM
12 | Cc1ccc(C2CCc3c(cnn(-c4cccc(F)n4)c3=O)C2)c(C)c1 (centres unmarked) [Example 9, 6-(2,4-dimethylphenyl)-2-(6-fluoropyridin-2-yl)-5,6,7,8-tetrahydrophthalazin-1(2H)-one] | < 500 nM
13 | COc1cccc(C2CCc3c(cnn(-c4nccc(N5CCOCC5)n4)c3=O)C2)c1C (centres unmarked) [Example 46, 6-(3-methoxy-2-methylphenyl)-2-(4-morpholinopyrimidin-2-yl)-5,6,7,8-tetrahydrophthalazin-1(2H)-one] | < 500 nM
14 | COc1cccc(C2CCc3c(cnn(-c4ncc(C)cn4)c3=O)C2)c1C (centres unmarked) [Example 41, 6-(3-methoxy-2-methylphenyl)-2-(5-methylpyrimidin-2-yl)-5,6,7,8-tetrahydrophthalazin-1(2H)-one] | < 500 nM
15 | COc1cccc(C2CCc3c(cnn(-c4ncccn4)c3=O)C2)c1C (centres unmarked) [Example 40, 6-(3-methoxy-2-methylphenyl)-2-(pyrimidin-2-yl)-5,6,7,8-tetrahydrophthalazin-1(2H)-one] | < 500 nM
16 | COc1ccc(-n2ncc3c(c2=O)CCC(c2ccc(C)cc2C)C3)nc1 (centres unmarked) [Example 14, 6-(2,4-dimethylphenyl)-2-(5-methoxypyridin-2-yl)-5,6,7,8-tetrahydrophthalazin-1(2H)-one] | < 500 nM
17 | Cc1ccc(C2CCc3c(cnn(-c4cccc(C#N)n4)c3=O)C2)c(C)c1 (centres unmarked) [Example 21, 6-(6-(2,4-dimethylphenyl)-1-oxo-5,6,7,8-tetrahydrophthalazin-2(1H)-yl)picolinonitrile] | < 500 nM
18 | COc1ccc(C)c(C2CCc3c(cnn(-c4ncc(C)cn4)c3=O)C2)c1 (centres unmarked) [Example 47, 6-(5-methoxy-2-methylphenyl)-2-(5-methylpyrimidin-2-yl)-5,6,7,8-tetrahydrophthalazin-1(2H)-one] | < 500 nM

Further lines, results first:

Row | IC50 | Compound
19 | < 500 nM | Cc1ccc(C2CCc3c(cnn(-c4ncc(C(F)(F)F)cn4)c3=O)C2)c(C)c1 (centres unmarked) [Example 55, 6-(2,4-dimethylphenyl)-2-(5-(trifluoromethyl)pyrimidin-2-yl)-5,6,7,8-tetrahydrophthalazin-1(2H)-one]
20 | 500 to 1000 nM | O=c1c2c(cnn1-c1ncccn1)CC(c1cccc3c1ccn3C1CC1)CC2 (single isomer, unassigned; (+)) [Example 138, (+)-6-(1-cyclopropyl-1H-indol-4-yl)-2-(pyrimidin-2-yl)-5,6,7,8-tetrahydrophthalazin-1(2H)-one]
21 | 500 to 1000 nM | Cc1cccc(C2CCc3c(cnn(-c4ncccn4)c3=O)C2)c1C (centres unmarked) [Example 82, 6-(2,3-dimethylphenyl)-2-(pyrimidin-2-yl)-5,6,7,8-tetrahydrophthalazin-1(2H)-one]
22 | < 500 nM | COCCCOc1cccc(C2CCc3c(cnn(-c4ncccn4)c3=O)C2)c1C (centres unmarked) [Example 100, 6-(3-(3-methoxypropoxy)-2-methylphenyl)-2-(pyrimidin-2-yl)-5,6,7,8-tetrahydrophthalazin-1(2H)-one]
23 | < 500 nM | COc1cccc(C2CCc3c(cnn(-c4ccc(C5CC5)cn4)c3=O)C2)c1C (centres unmarked) [Example 110, 2-(5-cyclopropylpyridin-2-yl)-6-(3-methoxy-2-methylphenyl)-5,6,7,8-tetrahydrophthalazin-1(2H)-one]
24 | 500 to 1000 nM | Cc1ccc(C)c(C2CCc3c(cnn(-c4ncccn4)c3=O)C2)c1 (centres unmarked) [Example 81, 6-(2,5-dimethylphenyl)-2-(pyrimidin-2-yl)-5,6,7,8-tetrahydrophthalazin-1(2H)-one]
25 | < 500 nM | O=c1c2c(cnn1-c1ncccn1)CC(c1cccc3c1CCN3C1CC1)CC2 (centres unmarked) [Example 92, 6-(1-cyclopropylindolin-4-yl)-2-(pyrimidin-2-yl)-5,6,7,8-tetrahydrophthalazin-1(2H)-one]
26 | < 500 nM | COc1ccc(C)c(C2CCc3c(cnn(-c4ncccn4)c3=O)C2)c1 (centres unmarked) [Example 80, 6-(5-methoxy-2-methylphenyl)-2-(pyrimidin-2-yl)-5,6,7,8-tetrahydrophthalazin-1(2H)-one]
27 | < 500 nM | COc1ccc(F)c(C2CCc3c(cnn(-c4ncccn4)c3=O)C2)c1 (centres unmarked) [Example 74, 6-(2-fluoro-5-methoxyphenyl)-2-(pyrimidin-2-yl)-5,6,7,8-tetrahydrophthalazin-1(2H)-one]
28 | < 500 nM | Cc1ccc(C2CCc3c(cnn(-c4ncc(C5CC5)cn4)c3=O)C2)c(C)c1 (centres unmarked) [Example 109, 2-(5-cyclopropylpyrimidin-2-yl)-6-(2,4-dimethylphenyl)-5,6,7,8-tetrahydrophthalazin-1(2H)-one]
29 | < 500 nM | COc1cccc(C2CCc3c(cnn(-c4ncccn4)c3=O)C2)c1Cl (centres unmarked) [Example 72, 6-(2-chloro-3-methoxyphenyl)-2-(pyrimidin-2-yl)-5,6,7,8-tetrahydrophthalazin-1(2H)-one]
30 | 1000 to 30000 nM | Cc1ccc2c(cnn2C)c1C1CCc2c(cnn(-c3ncccn3)c2=O)C1 (centres unmarked) [Example 88, 6-(1,5-dimethyl-1H-indazol-4-yl)-2-(pyrimidin-2-yl)-5,6,7,8-tetrahydrophthalazin-1(2H)-one]
31 | < 500 nM | COc1cccc(C2CCc3c(cnn(-c4ccc(N5CCOCC5)cn4)c3=O)C2)c1C (centres unmarked) [Example 113, 6-(3-methoxy-2-methylphenyl)-2-(5-morpholinopyridin-2-yl)-5,6,7,8-tetrahydrophthalazin-1(2H)-one]
32 | < 500 nM | CC(=O)Nc1cnc(-n2ncc3c(c2=O)CCC(c2ccc(C)cc2C)C3)nc1 (single isomer, unassigned; (+)) [Example 137, (+)-N-(2-(6-(2,4-dimethylphenyl)-1-oxo-5,6,7,8-tetrahydrophthalazin-2(1H)-yl)pyrimidin-5-yl)acetamide]
33 | < 500 nM | Cc1c(OC2CC2)cccc1C1CCc2c(cnn(-c3ncccn3)c2=O)C1 (single isomer, unassigned; (-)) [Example 128, (−)-6-(3-cyclopropoxy-2-methylphenyl)-2-(pyrimidin-2-yl)-5,6,7,8-tetrahydrophthalazin-1(2H)-one]
34 | 1000 to 30000 nM | CC(=O)c1cccc(C2CCc3c(cnn(-c4ncccn4)c3=O)C2)c1C (centres unmarked) [Example 120, 6-(3-acetyl-2-methylphenyl)-2-(pyrimidin-2-yl)-5,6,7,8-tetrahydrophthalazin-1(2H)-one]
35 | 500 to 1000 nM | Cc1c(OC2CC2)cccc1C1CCc2c(cnn(-c3ncccn3)c2=O)C1 (single isomer, unassigned; (+)) [Example 129, (+)-6-(3-cyclopropoxy-2-methylphenyl)-2-(pyrimidin-2-yl)-5,6,7,8-tetrahydrophthalazin-1(2H)-one]
